The record followed here is patent US10889546B2, “Alkynyl pyridine prolyl hydroxylase inhibitor, and preparation method and medical use thereof” (Jiangsu Hengrui Medicine Co., Ltd., priority 2015, dated 2021).

Read-outs that look alike come from different tables or passages of the source.

In general, IC50 refers to the concentration that inhibits the measured activity by half.

Assay [1] concerns VEGF. Nature of the assay: VEGF expression at the cellular level (VEGF kit). The format is cell-based. The note with it: Hep3B human hepatoma cell, 24 h after administration. As for the experimental part:
(§1) The test of the activity of some compounds of the present invention on VEGF at the cellular level and EPO at the cellular level is shown as follows. The method is in accordance with Bioorganic & Medicinal Chemistry Letters 23 (2013) 5953-5957, and the test was carried out by using VEGF and EPO kit respectively 24 h after administration.
(§2) Hep3B Cell: Human Hepatoma Cell

Assay [2] deals with EPO. In words: EPO expression at the cellular level (EPO kit). Type of assay: cell-based. The note with it: Hep3B human hepatoma cell, 24 h after administration. As for the experimental part:
as §1, §2

The next assay addresses Prolyl hydroxylase 2 (Homo sapiens (Human), UniProt Q9GZT9). Nature of the assay: Prolyl hydroxylase 2 inhibition, fluorescence polarization method. The format is biochemical. On the technique in general: Fluorescence polarisation rises when a labelled molecule tumbles more slowly, as on binding a larger partner.
In assay [3] the test system is VEGF. In words: VEGF level at the animal level (VEGF kit). The format is in vivo. The note with it: C57Bl/6 mice, male, 8-9 weeks old; 50 μM; 24 h / 4 h after administration. As for the experimental part: (§3) The test of the activity of some compounds of the present invention on VEGF at the animal level and EPO at the cellular level is shown as follows. The method is in accordance with Journal of Medicinal Chemistry 55 (2012) 2945-2959, and the test was carried out by using VEGF and EPO kit respectively 4 h after administration.

In the next assay the test system is HIF-α. In words: Western-blot test of HIF-α level in cells. The following applies: Hep3B cell, 50 μM, 250 μM, 24 hours after administration. Type of assay: cell-based, human. As to the method:
At the same time, Western-blot test at the cellular level was also carried out for some of the compounds of the present invention.
FIG. 1 is the results of Western-blot test of some compounds at the cellular level (Hep3B cell: human hepatoma cell; the compound concentration: 50 μM, 250 μM, 24 hours after administration)

Assay [4] deals with EPO. Nature of the assay: EPO level at the animal level (EPO kit). Type of assay: in vivo. The following applies: C57Bl/6 mice, male, 8-9 weeks old; 50 μM; 24 h / 4 h after administration. As to the method:
as §3

[5] abbreviates: fluorescence polarization, read 1 h after adding the drugs, read-out: Prolyl hydroxylase 2 (IC50 nM).
[6] abbreviates: Table 2 comparison, same test method, same batch, read-out: Prolyl hydroxylase 2 (IC50 nM), example compounds of the present invention.

Chain of Prolyl hydroxylase 2 (Q9GZT9 whole entry): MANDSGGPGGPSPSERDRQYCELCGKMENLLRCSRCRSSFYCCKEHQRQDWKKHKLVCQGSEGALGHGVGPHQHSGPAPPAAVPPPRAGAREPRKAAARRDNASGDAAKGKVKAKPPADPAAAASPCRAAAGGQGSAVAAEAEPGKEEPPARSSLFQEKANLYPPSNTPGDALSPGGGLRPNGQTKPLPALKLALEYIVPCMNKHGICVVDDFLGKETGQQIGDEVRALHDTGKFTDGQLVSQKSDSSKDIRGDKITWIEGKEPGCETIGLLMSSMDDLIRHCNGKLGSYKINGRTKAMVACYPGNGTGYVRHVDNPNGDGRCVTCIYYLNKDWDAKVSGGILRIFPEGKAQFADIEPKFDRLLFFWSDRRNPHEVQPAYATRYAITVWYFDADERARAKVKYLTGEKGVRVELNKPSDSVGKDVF

In the case of `CC(C)(C)C#Cc1cnc(C(=O)NCC(=O)O)c(O)c1` [Example 3, 2-(3-Hydroxy-5-tert-butylethynyl)picolinamido acetic acid], in the assay with VEGF [1], the “Whether it can increase the expression of VEGF in cells” value is “Yes”. For the same molecule, the “Whether it can increase the expression of EPO in cells” value in the assay on EPO [2] is “Yes”. The IC50 on Prolyl hydroxylase 2 (setting [5]) came to 1220 ± 56 nM.
In the case of `O=C(O)CNC(=O)c1ncc(C#CC2CC2)cc1O` [Example 4, 2-(3-Hydroxy-5-cyclopropylethynyl)picolinamido acetic acid], the “Whether it can increase the expression of VEGF in cells” value in the assay with VEGF [1] was “Yes”. In addition, in the assay on EPO [2], the “Whether it can increase the expression of EPO in cells” value is “Yes”. Also, the IC50 on Prolyl hydroxylase 2 (setting [5]) stood at 834.9 ± 3.2 nM.
On to `O=C(O)CNC(=O)c1ncc(C#Cc2ccccc2)cc1O` [Example 5, 2-(3-Hydroxy-5-phenylethynyl)picolinamido acetic acid], for which, in the assay with VEGF [1], the “Whether it can increase the expression of VEGF in cells” value is “Yes”. Moreover, the “Whether it can increase the expression of EPO in cells” value in the assay on EPO [2] is given as “Yes”. The IC50 on Prolyl hydroxylase 2 (setting [5]) turned out to be 820 ± 10.9 nM.
Consider `Cc1cccc(C#Cc2cnc(C(=O)NCC(=O)O)c(O)c2)c1` [Example 14, 2-(3-Hydroxy-5-m-methylphenylethynyl)picolinamido acetic acid], for which the “increased level of VEGF at the animal level (FIG. 2)” value (“increased level of VEGF” for short) in the assay on VEGF [3] is “increased level”. The “Whether it can increase the level of HIF-α in cells” value (“Whether it can increase the level” below) in the assay with HIF-α is listed as “Yes”. Further, the “increased level of EPO at the animal level (FIG. 2)” value (“increased level of EPO” below) with EPO [4] was “increased level”. Also, the “Whether it can increase the expression of VEGF in cells” value in the assay with VEGF [1] was “Yes”. Further, in the assay with EPO [2], the “Whether it can increase the expression of EPO in cells” value was “Yes”.
For `O=C(O)CNC(=O)c1ncc(C#Cc2ccc(F)cc2)cc1O` [Example 15, 2-(3-Hydroxy-5-p-fluorophenylethynyl)picolinamido acetic acid], in the assay on VEGF [3], the “increased level of VEGF” value was “increased level”. Besides, the “Whether it can increase the level” value in the assay with HIF-α was “Yes”. Besides, the “increased level of EPO” value with EPO [4] is on record as “increased level”. In the assay with VEGF [1], the “Whether it can increase the expression of VEGF in cells” value was “Yes”. Moreover, the “Whether it can increase the expression of EPO in cells” value in the assay with EPO [2] is “Yes”.
For `O=C(O)CNC(=O)c1ncc(C#Cc2ccc(-c3ccccc3)cc2)cc1O` [Example 18, 2-(3-Hydroxy-5-(biphenyl-4-ylethynyl))picolinamido acetic acid], the IC50 on Prolyl hydroxylase 2 (setting [5]) came out at 8130 ± 40.5 nM.
Regarding `O=C(O)CNC(=O)c1ncc(C#CCOc2ccccc2)cc1O` [Example 33, 2-(3-Hydroxy-5-(3-phenoxypropyn-1-yl))picolinamido acetic acid], the “Whether it can increase the expression of VEGF in cells” value with VEGF [1] is listed as “Yes”. Also, the “Whether it can increase the expression of EPO in cells” value with EPO [2] is listed as “Yes”. Besides, the IC50 on Prolyl hydroxylase 2 (setting [6]) and on Prolyl hydroxylase 2 (setting [5]) was 169.5 ± 0.5 nM in each case.
As for `Cc1ccc(OCC#Cc2cnc(C(=O)NCC(=O)O)c(O)c2)cc1` [Example 34, 2-(3-Hydroxy-5-(3-p-tolyloxypropyn-1-yl))picolinamido acetic acid], in the assay with HIF-α, the “Whether it can increase the level” value is “Yes”. Further, the “Whether it can increase the expression of VEGF in cells” value in the assay on VEGF [1] is listed as “Yes”. For the same molecule, in the assay on EPO [2], the “Whether it can increase the expression of EPO in cells” value was “Yes”. Moreover, on Prolyl hydroxylase 2 (setting [5]), the IC50 stood at 110 ± 22 nM.
As to `Cc1ccccc1OCC#Cc1cnc(C(=O)NCC(=O)O)c(O)c1` [Example 35], the “Whether it can increase the expression of VEGF in cells” value in the assay with VEGF [1] is reported as “Yes”. In addition, the “Whether it can increase the expression of EPO in cells” value in the assay on EPO [2] is on record as “Yes”. Also, on Prolyl hydroxylase 2 (setting [5]), the IC50 worked out at 70.4 ± 0.6 nM.
Consider `CCc1ccc(OCC#Cc2cnc(C(=O)NCC(=O)O)c(O)c2)cc1` [Example 36], for which the “Whether it can increase the expression of VEGF in cells” value in the assay on VEGF [1] is given as “Yes”. In addition, the “Whether it can increase the expression of EPO in cells” value with EPO [2] was “Yes”. Besides, at Prolyl hydroxylase 2 (setting [5]), the IC50 came out at 378 ± 33.3 nM.
For `Cc1cccc(OCC#Cc2cnc(C(=O)NCC(=O)O)c(O)c2)c1C` [Example 38, 2-(3-Hydroxy-5-(3-(2,3-dimethylphenyl)oxypropyn-1-yl))picolinamido acetic acid], the “Whether it can increase the level” value in the assay on HIF-α is listed as “Yes”. For the same molecule, the “Whether it can increase the expression of VEGF in cells” value in the assay on VEGF [1] is reported as “Yes”. In addition, the “Whether it can increase the expression of EPO in cells” value in the assay on EPO [2] is recorded as “Yes”.
Consider `O=C(O)CNC(=O)c1ncc(C#CCOc2ccc(C(F)(F)F)cc2)cc1O` [Example 42, 2-(3-Hydroxy-5-(3-p-trifluoromethylphenoxypropyn-1-yl))picolinamido acetic acid], for which the IC50 at Prolyl hydroxylase 2 (setting [5]) was 515 ± 6.1 nM.
With `O=C(O)CNC(=O)c1ncc(C#CCOc2ccc(Cl)cc2)cc1O` [Example 44, 2-(3-Hydroxy-5-(3-p-chlorophenoxypropyn-1-yl))picolinamido acetic acid], the “Whether it can increase the level” value in the assay on HIF-α was “Yes”. In the assay on VEGF [1], the “Whether it can increase the expression of VEGF in cells” value was “Yes”. For the same molecule, the “Whether it can increase the expression of EPO in cells” value in the assay on EPO [2] is on record as “Yes”. Further, the IC50 at Prolyl hydroxylase 2 (setting [6]) and at Prolyl hydroxylase 2 (setting [5]) was 13.7 ± 1.1 nM throughout.
`O=C(O)CNC(=O)c1ncc(C#CCOc2ccccc2Cl)cc1O` [Example 45, 2-(3-Hydroxy-5-(3-o-chlorophenoxypropyn-1-yl))picolinamido acetic acid]: the “Whether it can increase the expression of VEGF in cells” value in the assay on VEGF [1] is on record as “Yes”. Moreover, the “Whether it can increase the expression of EPO in cells” value in the assay on EPO [2] is “Yes”. The IC50 on Prolyl hydroxylase 2 (setting [5]) worked out at 175 ± 2.3 nM.
Regarding `O=C(O)CNC(=O)c1ncc(C#CCOc2cccc(Cl)c2)cc1O` [Example 46, 2-(3-Hydroxy-5-(3-m-chlorophenoxypropyn-1-yl))picolinamido acetic acid], the “Whether it can increase the expression of VEGF in cells” value in the assay on VEGF [1] is “Yes”. The “Whether it can increase the expression of EPO in cells” value in the assay with EPO [2] is reported as “Yes”. For the same molecule, the IC50 on Prolyl hydroxylase 2 (setting [5]) stood at 102 ± 5 nM.
For the molecule `O=C(O)CNC(=O)c1ncc(C#CCOc2ccc(F)cc2)cc1O` [Example 47, 2-(3-Hydroxy-5-(3-p-fluorophenoxypropyn-1-yl))picolinamido acetic acid], the “increased level of VEGF” value in the assay on VEGF [3] is “increased level”. The “increased level of EPO” value in the assay on EPO [4] was “increased level”. Also, in the assay with VEGF [1], the “Whether it can increase the expression of VEGF in cells” value was “Yes”. In the assay on EPO [2], the “Whether it can increase the expression of EPO in cells” value is reported as “Yes”. The IC50 at Prolyl hydroxylase 2 (setting [5]) amounted to 187 ± 8.3 nM.
For the molecule `O=C(O)CNC(=O)c1ncc(C#CCOc2ccc(-c3ccccc3)cc2)cc1O` [Example 57, 2-(3-Hydroxy-5-(3-p-phenylphenoxypropyn-1-yl))picolinamido acetic acid], the “Whether it can increase the expression of VEGF in cells” value in the assay with VEGF [1] is recorded as “Yes”. Also, the “Whether it can increase the expression of EPO in cells” value in the assay on EPO [2] is “Yes”. Further, the IC50 on Prolyl hydroxylase 2 (setting [5]) stood at 540 ± 3.6 nM.
With `O=C(O)CNC(=O)c1ncc(C#CCOc2cccc(Cl)c2Cl)cc1O` [Example 61, 2-(3-Hydroxy-5-(3-(2,3-dichlorophenyl)oxypropyn-1-yl))picolinamido acetic acid], the “Whether it can increase the expression of VEGF in cells” value in the assay on VEGF [1] is recorded as “Yes”. For the same molecule, in the assay with EPO [2], the “Whether it can increase the expression of EPO in cells” value is reported as “Yes”.
For the molecule `O=C(O)CNC(=O)c1ncc(C#CCOc2cc(Cl)cc(Cl)c2)cc1O` [Example 62, 2-(3-Hydroxy-5-(3-(3,5-dichlorophenyl)oxypropyn-1-yl))picolinamido acetic acid], the “Whether it can increase the expression of VEGF in cells” value with VEGF [1] is reported as “Yes”. The “Whether it can increase the expression of EPO in cells” value with EPO [2] is listed as “Yes”.
Turning to `O=C(O)CNC(=O)c1ncc(C#CCNc2ccccc2)cc1O` [Example 64, 2-(3-Hydroxy-5-(3-anilinopropyn-1-yl))picolinamido acetic acid], in the assay with VEGF [1], the “Whether it can increase the expression of VEGF in cells” value is given as “Yes”. Moreover, the “Whether it can increase the expression of EPO in cells” value in the assay on EPO [2] is “Yes”. Moreover, at Prolyl hydroxylase 2 (setting [5]), the IC50 is 326.5 ± 0.8 nM.
Regarding `O=C(O)CNC(=O)c1ncc(C#CCNc2ccc(Cl)cc2)cc1O` [Example 65], the “Whether it can increase the level” value with HIF-α was “Yes”. Besides, in the assay with VEGF [1], the “Whether it can increase the expression of VEGF in cells” value was “Yes”. Also, the “Whether it can increase the expression of EPO in cells” value with EPO [2] is on record as “Yes”.
Regarding `CCc1ccc(NCC#Cc2cnc(C(=O)NCC(=O)O)c(O)c2)cc1` [Example 66, 2-(3-Hydroxy-5-(3-p-ethylanilinopropyn-1-yl))picolinamido acetic acid], in the assay on VEGF [1], the “Whether it can increase the expression of VEGF in cells” value was “Yes”. In addition, the “Whether it can increase the expression of EPO in cells” value in the assay with EPO [2] is listed as “Yes”.
Regarding `Cc1nc(C(=O)NCC(=O)O)c(O)c2ccc(Oc3ccccc3)cc12` [FG-4592, reference compound], the “increased level of VEGF” value with VEGF [3] is listed as “increased level”. Moreover, the “increased level of EPO” value in the assay on EPO [4] was “increased level”. Moreover, in the assay with VEGF [1], the “Whether it can increase the expression of VEGF in cells” value is “Yes”. Also, in the assay with EPO [2], the “Whether it can increase the expression of EPO in cells” value is on record as “Yes”.
